Measured values as given in US8642834B2, “Methods for the identification of agents that inhibit mesenchymal-like tumor cells or their formation” (OSI Pharmaceuticals, LLC, priority 2009, dated 2014).

Tests used:
CFPAC-1 cells = assay: Induction of EMT by growth factors and cytokines, E-cadherin and vimentin immunoblotting; type: cell-based, human; conditions: CFPAC-1 cells treated 7 days with ligand
Protocol: The CFPAC1 cell line was cultured in DMEM media (Gibco #11960) supplemented with 10% FBS (Sigma), 2 mM L Glutamine (Gibco), at 37° C., 5% CO2. For 7 day treatments, cells were seeded on tissue culture plastic in complete growth media and allowed to attach overnight at cell densities that would provide approximately 60-80% confluence at end of experiment. Ligand and/or inhibitor was added the following day (Day 0) in complete growth media and incubated at 37° C., 5% CO2. Ligand source and concentrations used are as follows: [1] From R&D systems, SDF-1α (stromal derived factor-1 alpha) at 100 ng/ml, TRANCE (TNF-related activation induced cytokine) at 50 ng/ml, FGF1 (fibroblast growth factor acidic) at 10 ng/ml, FGF2 (fibroblast growth factor basic) at 10 ng/ml, BMP4 (bone morphogenetic protein 4) at 100 ng/ml, BMP7 (bone morphogenetic protein 7) at 100 ng/ml, IGF2 (insulin-like growth factor 2) at 100 ng/ml, OSM (Oncostatin M) at 100 ng/ml, NRG1 (Neuregulin-1) at 50 ng/ml, PDGFaa (Platelet derived growth factor a) at 50 ng/ml, PDGFbb (platelet derive growth factor b) at 30 ng/ml, Ang2 (Angiopoeitin 2) at 400 ng/ml, amphiregulin at 100 ng/ml, HMGB 1 (Human high-mobility group box 1 protein) at 50 ng/ml; [2] From Genscript, LIF (Leukemia inhibitory factor) at 20 ng/ml, GM-CSF (Granulocyte macrophage colony stimulating factor) at 25 ng/ml, M-CSF (Macrophage colony stimulating factor) at 50 ng/ml; [3] From Anaspec, PAR1 (Protease activated receptor 1 agonist) at 100 μM; PAR2 (Protease activated receptor 2 agonist; peptide SLIGKV-NH2, Cat. No. 60217-1) at 100 μM; PAR4 (Protease activated receptor […] agonist; peptide AYPGKF-NH2, Cat. No. 60218-1) at 100 μM; [4] From Peprotech, HGF (Hepatocyte Growth Factor) at 100 ng/ml; IL-31 (Interleukin-31) at 50 ng/ml, IL-33 (Interleukin-33) at 50 ng/ml, IL1-a (Interleukin-1 alpha) at 10 ng/ml, CTGF (Connective tissue growth factor) at 20 ng/ml, WISP1 (Wnt-1 inducible signaling pathway protein) at 20 ng/ml, PTHrP ([…] hormone-related protein) at 50 ng/ml, MCP1 (monocyte chemotactic protein-1) at 50 ng/ml; and [5] from Sigma, Fulvestrant at 1 μM. Fresh medium containing ligand and/or inhibitor was added 3-4 days after initial dose, and at Day 7 cells were harvested for western blot analysis.
Cells were harvested by washing once with PBS, and lysing on ice for 10 minutes with scraping (using a Cell Lifter, Corning Inc. #3008) in ice cold RIPA buffer (Sigma R0278) containing Protease inhibitor (Sigma P8340), Phosphatase inhibitors (Sigma P2850, P5726) and 200 μM Sodium Vanadate. Supernatents were micro-centrifuged at max speed, 4° C. for 10 minutes. Protein content was quantitated using the BCA method (Pierce #23225) and samples were normalized to total protein in Laemli buffer and heated at 100° C. for 10 minutes. SDS PAGE was run using a Bis-Tris gel system (Invitrogen NuPAGE) with MOPS buffer (Invitrogen NP0001), transferred onto nitrocellulose using the iBLOT system (Invitrogen) and blocked in PBS-T (0.1% Tween 20), 5% non-fat milk or BSA in guidance with primary Ab supplier requirements. All primary antibodies were incubated overnight at 4° C. in PBS-T (0.1% Tween 20) in either 5% non-fat milk or BSA, diluted to the following working dilutions: anti E Cadherin (Santa Cruz #sc-21791) 1:500 dilution; anti Vimentin (BD Biosciences #550513) 1:2000 dilution;); anti GAPDH HRP conjugate (Santa Cruz sc-25778) 1:1000 dilution; anti β-Actin (Sigma, A5441) 1:10,000 dilution. […]

CFPAC1 cells = assay: Doubling time after ligand treatment; type: cell-based, human; conditions: after 7 day ligand treatment, versus untreated
Protocol: Cells were plated and treated with ligand for 7 days. On day 7, cells were counted and re-plated on 6 cm cell culture dishes. On days 3, 5, 7, 10 and 12, cells were trypsinized and counted to determine the total number of cells in the dish, in duplicate. Doubling time was calculated using the multiple time point method on the website www.doubling-time.com.

Substance: HGF: Hepatocyte Growth Factor from Peprotech, used at 100 ng/ml
- Induction of EMT (E-cadherin down, vimentin up) (CFPAC-1 cells): most complete EMT
- Effect on doubling time (CFPAC1 cells): did not increase the doubling time
